Results from US20120164226A1, “Compositions and Methods for Improving Prognosis of a Human with Subarachnoid Hemorrhage” (priority 2007, published 2012).

What was measured:
[1] = tested on: Subarachnoid Hemorrhage (SAH) Dog Model; assay: Study 2: angiographic vasospasm (basilar artery diameter) in SAH dog model; assay type: in vivo; details: oral nimodipine 0.86 mg/kg six times per day till day 21
Description: The mixture was added to a surfactant containing aqueous solution to form an emulsion and the solvent extracted to produce the flowable microparticulate nimodipine formulation. […] The microparticulate nimodipine formulation is combined with a pharmaceutical carrier to form the pharmaceutical composition of the described invention. […] The placebo formulation contained the microparticles plus vehicle, but no nimodipine. […] (Data not shown). […] On Day 1, the dogs were weighed, baseline blood was collected and blood pressure, temperature, heart rate oxygen, and blood gases were monitored throughout the surgical procedure. Cerebral angiography was performed through one vertebral artery. Images were captured using identical exposure factors and magnification for every angiogram. An internal magnification standard was included in every angiogram. […] The needle was withdrawn immediately after the injection. […] The animal was then turned supine, the femoral catheter was removed, and the femoral artery was ligated. The incision was closed in a standard fashion. […] The angiographic data was independently analyzed by two reviewers who were blinded to the animal group. […] Individual percent vasospasm was determined for each animal for Days 8 and 15 using formula (I): Average percent vasospasm for Days 8 and 15 was also determined for each group. […]

[2] = tested on: R-type current in preparations of the neuronal cell body, retinal ganglion cells and hippocampal pyramidal cells; details: cited from earlier work
[3] = tested on: K^+ currents; details: cited from earlier work
[4] = tested on: Na^+ currents; details: cited from earlier work
[5] = tested on: T-type calcium currents; details: cited from earlier work
[6] = molecular target: N-type calcium current (Homo sapiens, UniProt Q00975); details: 300 nM to 500 nM; cited from earlier work
Chain of N-type calcium current (Q00975 whole entry): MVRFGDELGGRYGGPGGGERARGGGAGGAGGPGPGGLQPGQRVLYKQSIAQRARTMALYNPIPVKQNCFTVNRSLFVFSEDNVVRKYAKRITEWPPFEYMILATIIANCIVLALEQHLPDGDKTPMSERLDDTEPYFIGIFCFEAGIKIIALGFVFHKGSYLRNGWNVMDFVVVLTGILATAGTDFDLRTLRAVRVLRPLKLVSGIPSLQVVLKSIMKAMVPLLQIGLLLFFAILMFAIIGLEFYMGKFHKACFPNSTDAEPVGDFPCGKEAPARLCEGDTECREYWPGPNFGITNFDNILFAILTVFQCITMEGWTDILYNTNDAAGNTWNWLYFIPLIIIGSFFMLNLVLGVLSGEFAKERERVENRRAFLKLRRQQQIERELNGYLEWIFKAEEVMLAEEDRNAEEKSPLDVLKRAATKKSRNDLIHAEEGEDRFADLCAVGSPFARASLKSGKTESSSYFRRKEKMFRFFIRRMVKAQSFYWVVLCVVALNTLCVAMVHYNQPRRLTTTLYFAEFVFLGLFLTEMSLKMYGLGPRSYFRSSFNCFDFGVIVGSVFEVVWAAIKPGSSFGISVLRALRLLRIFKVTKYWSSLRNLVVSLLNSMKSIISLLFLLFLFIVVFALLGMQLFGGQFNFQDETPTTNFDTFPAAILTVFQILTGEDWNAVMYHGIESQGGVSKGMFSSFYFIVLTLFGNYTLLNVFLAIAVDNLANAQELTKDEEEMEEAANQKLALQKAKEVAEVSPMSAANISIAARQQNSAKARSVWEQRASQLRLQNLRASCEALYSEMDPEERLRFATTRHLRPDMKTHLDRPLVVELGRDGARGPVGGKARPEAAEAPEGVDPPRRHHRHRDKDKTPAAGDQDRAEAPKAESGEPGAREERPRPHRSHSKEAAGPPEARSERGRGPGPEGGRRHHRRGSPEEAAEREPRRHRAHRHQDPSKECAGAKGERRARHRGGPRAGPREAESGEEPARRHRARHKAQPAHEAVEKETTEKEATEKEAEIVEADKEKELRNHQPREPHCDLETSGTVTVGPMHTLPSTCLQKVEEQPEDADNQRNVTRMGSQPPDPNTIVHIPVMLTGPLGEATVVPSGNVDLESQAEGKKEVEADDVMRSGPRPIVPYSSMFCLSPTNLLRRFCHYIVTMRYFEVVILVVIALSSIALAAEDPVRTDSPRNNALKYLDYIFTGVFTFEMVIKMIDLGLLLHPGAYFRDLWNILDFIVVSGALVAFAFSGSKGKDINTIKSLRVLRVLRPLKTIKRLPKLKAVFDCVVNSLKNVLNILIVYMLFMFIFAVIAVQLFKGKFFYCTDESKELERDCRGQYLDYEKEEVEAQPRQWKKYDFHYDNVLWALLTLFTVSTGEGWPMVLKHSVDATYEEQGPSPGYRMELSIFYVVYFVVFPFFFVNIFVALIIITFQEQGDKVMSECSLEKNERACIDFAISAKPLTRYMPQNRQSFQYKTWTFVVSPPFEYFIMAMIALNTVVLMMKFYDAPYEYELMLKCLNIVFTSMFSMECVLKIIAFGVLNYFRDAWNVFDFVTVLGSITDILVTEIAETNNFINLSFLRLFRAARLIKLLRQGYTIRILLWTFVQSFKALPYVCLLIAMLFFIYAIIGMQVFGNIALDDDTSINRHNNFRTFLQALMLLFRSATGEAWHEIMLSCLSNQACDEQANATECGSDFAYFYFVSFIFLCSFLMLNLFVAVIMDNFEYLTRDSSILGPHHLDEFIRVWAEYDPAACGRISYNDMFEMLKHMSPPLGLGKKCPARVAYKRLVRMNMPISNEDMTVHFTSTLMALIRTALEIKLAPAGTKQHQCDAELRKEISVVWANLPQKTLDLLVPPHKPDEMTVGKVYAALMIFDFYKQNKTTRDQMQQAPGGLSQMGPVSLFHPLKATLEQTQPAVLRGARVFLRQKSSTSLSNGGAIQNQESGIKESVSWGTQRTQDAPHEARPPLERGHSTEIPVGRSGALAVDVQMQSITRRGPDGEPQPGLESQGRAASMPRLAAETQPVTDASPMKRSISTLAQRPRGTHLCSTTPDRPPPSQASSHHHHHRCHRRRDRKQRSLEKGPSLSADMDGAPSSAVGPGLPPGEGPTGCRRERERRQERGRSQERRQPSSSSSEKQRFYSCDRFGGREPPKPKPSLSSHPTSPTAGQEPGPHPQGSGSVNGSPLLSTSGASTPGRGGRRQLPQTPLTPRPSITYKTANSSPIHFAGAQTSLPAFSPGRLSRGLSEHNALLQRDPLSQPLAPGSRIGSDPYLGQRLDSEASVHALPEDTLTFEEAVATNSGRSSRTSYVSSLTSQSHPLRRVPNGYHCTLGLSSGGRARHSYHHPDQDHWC

[7] = molecular target: P/Q-type calcium currents (Homo sapiens, UniProt O00555); details: cited from earlier work
Chain of P/Q-type calcium currents (O00555 whole entry): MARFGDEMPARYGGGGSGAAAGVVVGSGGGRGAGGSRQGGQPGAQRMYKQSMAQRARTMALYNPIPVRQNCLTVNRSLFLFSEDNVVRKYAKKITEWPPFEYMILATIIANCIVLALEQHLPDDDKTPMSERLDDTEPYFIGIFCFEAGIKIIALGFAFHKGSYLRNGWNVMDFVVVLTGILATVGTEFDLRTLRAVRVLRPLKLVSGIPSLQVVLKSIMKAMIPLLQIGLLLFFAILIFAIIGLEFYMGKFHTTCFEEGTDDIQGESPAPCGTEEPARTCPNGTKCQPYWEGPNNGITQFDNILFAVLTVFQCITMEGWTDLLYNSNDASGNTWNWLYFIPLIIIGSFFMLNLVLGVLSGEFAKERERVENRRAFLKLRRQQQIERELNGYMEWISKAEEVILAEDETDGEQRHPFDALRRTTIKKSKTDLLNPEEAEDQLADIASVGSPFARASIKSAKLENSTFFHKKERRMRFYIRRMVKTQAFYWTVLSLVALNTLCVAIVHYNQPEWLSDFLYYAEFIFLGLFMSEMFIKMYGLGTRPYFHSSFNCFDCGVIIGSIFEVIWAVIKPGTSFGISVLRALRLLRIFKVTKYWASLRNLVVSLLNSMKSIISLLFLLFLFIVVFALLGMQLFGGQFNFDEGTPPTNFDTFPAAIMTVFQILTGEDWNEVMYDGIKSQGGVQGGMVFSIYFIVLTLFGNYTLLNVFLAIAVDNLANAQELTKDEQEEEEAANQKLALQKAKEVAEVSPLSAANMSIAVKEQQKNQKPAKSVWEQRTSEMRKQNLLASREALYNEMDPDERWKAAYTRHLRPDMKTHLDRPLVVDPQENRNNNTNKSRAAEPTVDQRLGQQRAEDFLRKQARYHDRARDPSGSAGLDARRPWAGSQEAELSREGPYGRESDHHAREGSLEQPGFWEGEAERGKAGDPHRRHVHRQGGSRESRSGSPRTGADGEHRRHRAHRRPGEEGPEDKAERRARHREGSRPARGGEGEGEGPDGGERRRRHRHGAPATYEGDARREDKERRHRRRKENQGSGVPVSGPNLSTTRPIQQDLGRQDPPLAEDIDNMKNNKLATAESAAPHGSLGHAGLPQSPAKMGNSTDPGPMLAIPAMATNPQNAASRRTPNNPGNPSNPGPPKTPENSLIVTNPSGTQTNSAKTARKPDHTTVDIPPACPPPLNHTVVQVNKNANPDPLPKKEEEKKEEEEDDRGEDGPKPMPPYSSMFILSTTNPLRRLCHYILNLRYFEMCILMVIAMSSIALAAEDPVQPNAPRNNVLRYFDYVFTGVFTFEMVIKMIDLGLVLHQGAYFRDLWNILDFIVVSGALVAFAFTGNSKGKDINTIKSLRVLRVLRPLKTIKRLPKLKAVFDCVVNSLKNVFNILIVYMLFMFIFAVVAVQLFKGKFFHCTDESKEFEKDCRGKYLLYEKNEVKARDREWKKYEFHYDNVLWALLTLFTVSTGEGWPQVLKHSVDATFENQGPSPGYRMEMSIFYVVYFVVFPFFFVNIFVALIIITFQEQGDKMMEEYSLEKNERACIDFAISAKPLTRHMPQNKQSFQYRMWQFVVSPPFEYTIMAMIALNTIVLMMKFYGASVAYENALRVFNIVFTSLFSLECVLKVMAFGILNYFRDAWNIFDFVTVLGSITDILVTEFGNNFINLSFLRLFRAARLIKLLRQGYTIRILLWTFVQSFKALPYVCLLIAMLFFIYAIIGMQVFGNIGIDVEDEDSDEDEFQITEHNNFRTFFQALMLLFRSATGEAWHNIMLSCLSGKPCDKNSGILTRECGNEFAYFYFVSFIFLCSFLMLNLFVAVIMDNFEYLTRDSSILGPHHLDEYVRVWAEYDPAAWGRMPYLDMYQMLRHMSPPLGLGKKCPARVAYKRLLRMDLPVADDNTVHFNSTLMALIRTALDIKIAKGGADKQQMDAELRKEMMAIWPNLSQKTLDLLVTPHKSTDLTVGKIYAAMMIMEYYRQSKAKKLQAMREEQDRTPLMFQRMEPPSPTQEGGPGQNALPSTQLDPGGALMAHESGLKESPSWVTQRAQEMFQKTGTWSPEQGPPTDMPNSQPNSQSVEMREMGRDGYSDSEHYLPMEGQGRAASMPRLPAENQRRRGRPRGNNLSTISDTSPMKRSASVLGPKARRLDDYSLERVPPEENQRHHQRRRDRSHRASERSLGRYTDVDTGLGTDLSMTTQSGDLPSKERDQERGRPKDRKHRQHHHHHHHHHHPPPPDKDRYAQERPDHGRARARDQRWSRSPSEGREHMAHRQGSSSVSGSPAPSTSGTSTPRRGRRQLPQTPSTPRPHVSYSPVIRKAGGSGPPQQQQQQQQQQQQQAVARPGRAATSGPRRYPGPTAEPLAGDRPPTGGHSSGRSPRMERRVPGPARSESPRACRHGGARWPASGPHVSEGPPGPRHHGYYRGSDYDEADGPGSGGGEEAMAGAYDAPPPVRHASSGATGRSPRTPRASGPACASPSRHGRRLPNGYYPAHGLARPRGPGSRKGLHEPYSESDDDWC

[8] = tested on: L-type calcium currents; details: cited from earlier work
[9] = molecular target: T1, R-type calcium current in the neurohypophysial nerve endings (Homo sapiens, UniProt Q15878); details: 40 nM concentration; cited from earlier work
T1 construct: R-type calcium current in the neurohypophysial nerve endings at 40 nM concentration; host or cells: neurohypophysial nerve endings

Row | Compound | percent vasospasm (% change in mean basilar artery diameter from baseline), Mean ([1]; Day 8) [%] | percent vasospasm (% change in mean basilar artery diameter from baseline), Mean ([1]; Day 15) [%] | effect on R-type current [2] | effect on K+ currents [3] | effect on Na+ currents [4] | effect on T-type calcium currents [5] | N-type calcium current blocked [6] | effect on P/Q-type calcium currents [7] | effect on L-type calcium currents [8] | block of R-type calcium current [9]
1 | COCCOC(=O)C1=C(C)NC(C)=C(C(=O)OC(C)C)C1c1cccc([N+](=O)[O-])c1 (stereo not shown) [Control, nimodipine] | −27.89 | −11.67 |  |  |  |  |  |  |  | 
2 | SNX-482 |  |  | no significant effect | no effect | no effect | no effect | 30-50% | no effect | no effect | blocks
